Among the data in patent US20240383901A1, “SUBSTITUTED PYRROLO[2,3-D]PYRIMIDINES, THEIR PREPARATION AND THEIR THERAPEUTIC APPLICATION” (SANOFI, priority 2021, published 2024) are IC50 values, retold here.

Experiment [1] addresses T1, full-length LRRK2 wild type (Homo sapiens, UniProt Q5S007).
T1 construct: DYDDDDK tagged full-length LRRK2 wild type is used
Briefly: LRRK2 WT assay (Assay A, Lanthascreen TR-FRET, 500 uM ATP). Type of experiment: biochemical. The note with it: Assay A (values without *). The protocol: (§1) The potency of compounds was evaluated in vitro using the Lanthascreen® technology (ThermoFisher Scientific).
(§2) In a typical experiment, the reaction assay buffer contains 50 mM Tris pH8.2, 1 mM EGTA, 2.5 mM MgCl2, 0.05% Triton X100, 0.15% BSA and 1 mM DTT. The detection of the assay is performed using 1 nM Terbium labeled anti-phospho-LRRKtide (ThermoFisher Scientific) diluted in a TR-FRET buffer (ThermoFisher Scientific).
(§3) The experimental procedure was performed with Greiner small volume® 384-well. […] The working solution of compounds was prepared in a separate Greiner microplate.
(§4) The kinase reaction was initiated by addition of the ATP/LRRKtide substrate mix diluted in the reaction assay buffer. The reaction mix was incubated for at least 10 minutes at room temperature (initial velocity conditions). Reaction was stopped by addition of Terbium labeled anti-phospho-LRRKtide diluted into the detection buffer supplemented with EDTA (ThermoFisher Scientific). Plates are incubated for at least 30 minutes at room temperature and read on an Envision™ multimode plate reader (PerkinElmer) with LanthaScreen™. The TR-FRET 520:495 nm emission ratio was calculated and used to determine the IC50 value from a dose response curve fit to the 4-parameter logistic equation. The activity with respect to LRRK2 kinase in this test is given by the concentration which inhibits 50% of the LRRK2 activity (or IC50) in nM.
In general terms: TR-FRET usually uses a lanthanide donor and a delayed reading to cut background.

The target in another experiment is T2, full-length LRRK2 G2019S (Homo sapiens, UniProt Q5S007, G2019S).
T2 construct: DYKDDDDK (FLAG)
T2 sequence (Q5S007 whole entry G2019S): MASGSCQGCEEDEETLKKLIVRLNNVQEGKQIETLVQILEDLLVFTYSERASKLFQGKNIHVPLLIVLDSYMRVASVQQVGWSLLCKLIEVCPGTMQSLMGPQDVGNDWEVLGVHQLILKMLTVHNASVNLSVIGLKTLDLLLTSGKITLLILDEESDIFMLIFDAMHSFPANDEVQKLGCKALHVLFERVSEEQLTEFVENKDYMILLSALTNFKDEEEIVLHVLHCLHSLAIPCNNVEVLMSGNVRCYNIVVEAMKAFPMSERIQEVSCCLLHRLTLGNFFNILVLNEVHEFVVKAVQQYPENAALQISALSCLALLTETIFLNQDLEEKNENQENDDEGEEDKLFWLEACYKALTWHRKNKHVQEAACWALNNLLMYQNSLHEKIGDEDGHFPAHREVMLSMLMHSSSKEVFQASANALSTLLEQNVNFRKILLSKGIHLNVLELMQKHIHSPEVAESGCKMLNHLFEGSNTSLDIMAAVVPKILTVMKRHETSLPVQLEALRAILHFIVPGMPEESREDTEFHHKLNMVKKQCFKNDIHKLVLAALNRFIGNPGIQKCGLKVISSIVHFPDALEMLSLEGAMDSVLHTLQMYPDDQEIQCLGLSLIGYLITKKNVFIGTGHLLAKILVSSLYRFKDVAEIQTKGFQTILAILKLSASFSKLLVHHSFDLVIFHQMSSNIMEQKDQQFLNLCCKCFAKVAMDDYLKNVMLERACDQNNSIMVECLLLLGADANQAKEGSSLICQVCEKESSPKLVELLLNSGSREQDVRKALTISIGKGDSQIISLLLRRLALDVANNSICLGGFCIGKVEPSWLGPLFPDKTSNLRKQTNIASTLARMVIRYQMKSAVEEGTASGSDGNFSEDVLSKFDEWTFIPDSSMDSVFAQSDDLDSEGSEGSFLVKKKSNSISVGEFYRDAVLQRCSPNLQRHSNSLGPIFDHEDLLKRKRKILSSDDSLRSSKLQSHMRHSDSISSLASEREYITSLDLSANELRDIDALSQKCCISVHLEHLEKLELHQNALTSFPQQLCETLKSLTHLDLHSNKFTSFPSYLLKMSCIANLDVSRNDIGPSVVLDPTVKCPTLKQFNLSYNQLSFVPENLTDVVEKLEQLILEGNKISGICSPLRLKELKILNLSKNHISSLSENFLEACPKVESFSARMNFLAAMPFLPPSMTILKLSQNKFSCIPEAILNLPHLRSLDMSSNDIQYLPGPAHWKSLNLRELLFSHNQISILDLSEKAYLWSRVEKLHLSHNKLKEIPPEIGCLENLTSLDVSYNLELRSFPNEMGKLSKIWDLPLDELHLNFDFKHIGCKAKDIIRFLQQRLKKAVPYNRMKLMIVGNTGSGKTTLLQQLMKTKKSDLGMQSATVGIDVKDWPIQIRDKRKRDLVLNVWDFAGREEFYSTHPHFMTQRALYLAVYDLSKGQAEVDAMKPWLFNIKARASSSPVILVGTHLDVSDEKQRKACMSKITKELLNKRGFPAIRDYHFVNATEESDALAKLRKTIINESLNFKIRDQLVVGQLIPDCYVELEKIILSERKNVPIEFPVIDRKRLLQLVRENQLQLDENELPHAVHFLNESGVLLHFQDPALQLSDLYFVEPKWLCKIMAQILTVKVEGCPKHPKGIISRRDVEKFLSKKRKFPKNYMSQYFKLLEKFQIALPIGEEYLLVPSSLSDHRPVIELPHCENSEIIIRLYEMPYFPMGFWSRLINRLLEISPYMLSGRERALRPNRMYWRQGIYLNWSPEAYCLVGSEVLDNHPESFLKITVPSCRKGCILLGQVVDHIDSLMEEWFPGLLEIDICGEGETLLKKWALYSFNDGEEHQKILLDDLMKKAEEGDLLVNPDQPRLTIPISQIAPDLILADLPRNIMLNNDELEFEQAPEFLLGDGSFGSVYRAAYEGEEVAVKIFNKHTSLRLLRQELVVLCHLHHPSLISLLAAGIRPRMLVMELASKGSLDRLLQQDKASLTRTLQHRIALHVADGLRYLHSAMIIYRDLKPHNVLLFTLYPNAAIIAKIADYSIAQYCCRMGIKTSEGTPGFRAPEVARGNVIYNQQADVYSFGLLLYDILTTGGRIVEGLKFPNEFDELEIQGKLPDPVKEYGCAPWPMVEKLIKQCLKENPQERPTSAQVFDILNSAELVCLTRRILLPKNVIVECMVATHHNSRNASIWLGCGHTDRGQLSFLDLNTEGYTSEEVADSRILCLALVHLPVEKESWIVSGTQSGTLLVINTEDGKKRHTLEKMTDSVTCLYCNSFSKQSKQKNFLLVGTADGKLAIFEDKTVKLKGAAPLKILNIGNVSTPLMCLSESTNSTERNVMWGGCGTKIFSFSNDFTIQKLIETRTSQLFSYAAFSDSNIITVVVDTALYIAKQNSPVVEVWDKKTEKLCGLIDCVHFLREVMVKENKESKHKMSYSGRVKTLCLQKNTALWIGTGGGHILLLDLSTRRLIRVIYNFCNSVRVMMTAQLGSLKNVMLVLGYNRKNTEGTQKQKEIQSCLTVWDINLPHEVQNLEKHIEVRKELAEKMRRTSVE
Briefly: LRRK2-G2019S kinase activity assay (Lanthascreen TR-FRET). As to conditions: 1.1 mM ATP. Type of experiment: biochemical. The protocol: as §1, §2, §3, §4

T1 sequence (Q5S007 whole entry): as the sequence (Q5S007 whole entry G2019S) above, with S2019G counted along it

On to `COCn1cc(Nc2ncc3cc(C#N)n([C@H]4COC[C@@H]4C)c3n2)c(O[C@@H]2CO[C@H]2C)n1` (mixture of isomers) [Example 39, 2-[[1-(methoxymethyl)-3-[(trans)-2-methyloxetan-3-yl]oxy-pyrazol-4-yl]amino]-7-[(3R,4R)-4-methyltetrahydrofuran-3-yl]pyrrolo[2,3-d]pyrimidine-6-carbonitrile], for which the IC50 in experiment [1] is 10 nM; on full-length LRRK2 G2019S, 8 nM. With `CO[C@H]1COC[C@H]1n1c(C#N)cc2cnc(Nc3cn(C4COC4)nc3OC(C)C(F)(F)F)nc21` (mixture of isomers) [Example 54, 7-((3R,4R)-4-Methoxytetrahydrofuran-3-yl)-2-((1-(oxetan-3-yl)-3-((1,1,1-trifluoropropan-2-yl)oxy)-1 H-pyrazol-4-yl)amino)-7H-pyrrolo[2,3-d]pyrimidine-6-carbonitrile], the IC50 worked out at 61 nM in experiment [1] and 27 nM against full-length LRRK2 G2019S. Consider `[2H]C([2H])([2H])n1cc(Nc2ncc3cc(C#N)n(C4COCC4C)c3n2)c(OC2CCC2(C)O)n1` (mixture of isomers) [Example 142, 2-((3-((1S,2S)-2-hydroxy-2-methylcyclobutoxy)-1-(methyl-d3)-1 H-pyrazol-4-yl)amino)-7-((3R,4R)-4-methyltetrahydrofuran-3-yl)-7H-pyrrolo[2,3-d]pyrimidine-6-carbonitrile and 2-((3-((1 R,2R)-2-hydroxy-2-methylcyclobutoxy)-1-(methyl-d3)-1 H-pyrazol-4-yl)amino)-7-((3R,4R)-4-methyltetrahydrofuran-3-yl)-7H-pyrrolo[2,3-d]pyrimidine-6-carbonitrile], for which the IC50 is 3 nM in experiment [1] and 5 nM on full-length LRRK2 G2019S.

As to `COC[C@H](C)n1c(C#N)cc2cnc(Nc3cn(CCO)nc3OC3CCOC3)nc21` (mixture of isomers) [Example 151, 2-((1-(2-hydroxyethyl)-3-((tetrahydrofuran-3-yl)oxy)-1 H-pyrazol-4-yl)amino)-7-((S)-1-methoxypropan-2-yl)-7H-pyrrolo[2,3-d]pyrimidine-6-carbonitrile], the IC50 is 31 nM in experiment [1] and 27 nM on full-length LRRK2 G2019S. Turning to `CC(C(F)F)n1cc(Nc2ncc3cc(C#N)n([C@H]4COC[C@@H]4C)c3n2)c(OC2CC2)n1` (mixture of isomers) [Example 43, 2-((3-cyclopropoxy-1-(1,1-difluoropropan-2-yl)-1H-pyrazol-4-yl)amino)-7-((3R,4R)-4-methyltetrahydrofuran-3-yl)-7H-pyrrolo[2,3-d]pyrimidine-6-carbonitrile], the IC50 is 2 nM in experiment [1] and 1 nM on full-length LRRK2 G2019S. In the case of `CC(C)Oc1nn(C)cc1Nc1ncc2cc(C#N)n([C@@H]3COC[C@@H]3C)c2n1` (racemic) [Example 47, 2-((3-isopropoxy-1-methyl-1 H-pyrazol-4-yl)amino)-7-((cis)-4-methyltetrahydrofuran-3-yl)-7H-pyrrolo[2,3-d]pyrimidine-6-carbonitrile], the IC50 in experiment [1] came to 36 nM; against full-length LRRK2 G2019S it was 31 nM. For `CO[C@@H]1COC[C@H]1n1c(C#N)cc2cnc(Nc3cn(C)nc3OC3COC3)nc21` (racemic) [Example 70, 7-((trans)-4-methoxytetrahydrofuran-3-yl)-2-((1-methyl-3-(oxetan-3-yloxy)-1 H-pyrazol-4-yl)amino)-7H-pyrrolo[2,3-d]pyrimidine-6-carbonitrile], in that order: 270 nM and 160 nM. In the case of `CO[C@@H]1COC[C@H]1n1c(C#N)cc2cnc(Nc3ccc(C(C)(C)O)cc3OC3COC3)nc21` (racemic) [Example 71, 2-((4-(2-hydroxypropan-2-yl)-2-(oxetan-3-yloxy)phenyl)amino)-7-((trans)-4-methoxytetrahydrofuran-3-yl)-7H-pyrrolo[2,3-d]pyrimidine-6-carbonitrile], the half-inhibitory concentration (IC50) in experiment [1] is 109 nM; at full-length LRRK2 G2019S, 69 nM.

Consider `C[C@@H]1COC[C@H]1Oc1nn(C)cc1Nc1ncc2cc(C#N)n([C@H]3COC[C@@H]3C)c2n1` (single isomer, unassigned) [Example 2], for which the IC50 (in experiment [1]; against full-length LRRK2 G2019S) was 5 nM throughout. For the molecule `C[C@@H]1COC[C@H]1Oc1nn(C)cc1Nc1ncc2cc(C#N)n([C@H]3COC[C@@H]3C)c2n1` (single isomer, unassigned) [Example 3], the figures for the IC50 (in experiment [1]; against full-length LRRK2 G2019S) were 5 nM and 4 nM, respectively. In the case of `CC(C(F)F)n1cc(Nc2ncc3cc(C#N)n([C@H]4COC[C@@H]4C)c3n2)c(OC2COC2)n1` (single isomer, unassigned) [Example 4], the IC50 (in experiment [1]; against full-length LRRK2 G2019S) was 1 nM throughout. As for `CC(C(F)F)n1cc(Nc2ncc3cc(C#N)n([C@H]4COC[C@@H]4C)c3n2)c(OC2COC2)n1` (single isomer, unassigned) [Example 5], the IC50 amounted to 4 nM in experiment [1] and 5 nM on full-length LRRK2 G2019S. In the same order, the values of `C[C@@H]1OC[C@H]1Oc1nn(C)cc1Nc1ncc2cc(C#N)n([C@H]3COC[C@@H]3C)c2n1` (single isomer, unassigned) [Example 6] are 5 nM and 4 nM. `C[C@@H]1OC[C@H]1Oc1nn(C)cc1Nc1ncc2cc(C#N)n([C@H]3COC[C@@H]3C)c2n1` (single isomer, unassigned) [Example 7]: the IC50 (in experiment [1]; at full-length LRRK2 G2019S) was 2 nM each time. For `CC(Oc1nn(C2COC2)cc1Nc1ncc2cc(C#N)n([C@H]3COC[C@@H]3C)c2n1)C(F)(F)F` (single isomer, unassigned) [Example 10], the IC50 (in experiment [1]; against full-length LRRK2 G2019S) was 1 nM each time.

In the case of `CC(Oc1nn(C2COC2)cc1Nc1ncc2cc(C#N)n([C@H]3COC[C@@H]3C)c2n1)C(F)(F)F` (single isomer, unassigned) [Example 11], the IC50 is 27 nM in experiment [1] and 19 nM at full-length LRRK2 G2019S. Turning to `CO[C@@H]1COC[C@H]1Oc1nn(C)cc1Nc1ncc2cc(C#N)n([C@H]3COC[C@@H]3C)c2n1` (single isomer, unassigned) [Example 12], the IC50 in experiment [1] worked out at 8 nM; on full-length LRRK2 G2019S, 6 nM. In the case of `CO[C@@H]1COC[C@H]1Oc1nn(C)cc1Nc1ncc2cc(C#N)n([C@H]3COC[C@@H]3C)c2n1` (single isomer, unassigned) [Example 13], the values for the IC50 (in experiment [1]; against full-length LRRK2 G2019S) were 13 nM and 9 nM, respectively. Regarding `CC(Oc1nn(C)cc1Nc1ncc2cc(C#N)n([C@H]3COC[C@@H]3C)c2n1)C(F)(F)F` (single isomer, unassigned) [Example 21], the IC50 (in experiment [1]; on full-length LRRK2 G2019S) was 1 nM each time. Consider `CC(Oc1nn(C)cc1Nc1ncc2cc(C#N)n([C@H]3COC[C@@H]3C)c2n1)C(F)(F)F` (single isomer, unassigned) [Example 22], for which the IC50 in experiment [1] was determined as 30 nM; against full-length LRRK2 G2019S it was 25 nM. As to `[2H]C([2H])([2H])n1cc(Nc2ncc3cc(C#N)n([C@H]4COC[C@@H]4C)c3n2)c(O[C@H]2CO[C@H]2C)n1` (single isomer, unassigned) [Example 23], the IC50 stood at 10 nM in experiment [1] and 8 nM against full-length LRRK2 G2019S.

For the molecule `C[C@H]1COC[C@H]1n1c(C#N)cc2cnc(Nc3cn(C)nc3OC3COC3)nc21` (single isomer, unassigned) [Example 45, 2-((1-methyl-3-(oxetan-3-yloxy)-1 H-pyrazol-4-yl)amino)-7-((cis)-4-methyltetrahydrofuran-3-yl)-7H-pyrrolo[2,3-d]pyrimidine-6-carbonitrile], the values for the IC50 (in experiment [1]; at full-length LRRK2 G2019S) were 46 nM and 35 nM, respectively. As to `C[C@H]1COC[C@H]1n1c(C#N)cc2cnc(Nc3cn(C)nc3OC3COC3)nc21` (single isomer, unassigned) [Example 46, 2-((1-methyl-3-(oxetan-3-yloxy)-1 H-pyrazol-4-yl)amino)-7-((cis)-4-methyltetrahydrofuran-3-yl)-7H-pyrrolo[2,3-d]pyrimidine-6-carbonitrile], the IC50 in experiment [1] amounted to 489 nM; against full-length LRRK2 G2019S, 413 nM.

For the molecule `CO[C@H]1COC[C@H]1n1c(C#N)cc2cnc(Nc3cn(C(C)C#N)nc3OC(C)C)nc21` (single isomer, unassigned) [Example 56], the IC50 in experiment [1] is 7 nM; at full-length LRRK2 G2019S it was 4 nM.

`C[C@@H]1OC[C@H]1n1c(C#N)cc2cnc(Nc3cn(C)nc3OC3COC3)nc21` (single isomer, unassigned) [Example 76, 7-[(trans)-2-methyloxetan-3-yl]-2-[[1-methyl-3-(oxetan-3-yloxy)pyrazol-4-yl]amino]pyrrolo[2,3-d]pyrimidine-6-carbonitrile]: the values for the IC50 (in experiment [1]; at full-length LRRK2 G2019S) were 241 nM and 200 nM, respectively. On to `C[C@@H]1OC[C@H]1n1c(C#N)cc2cnc(Nc3cn(C)nc3OC3COC3)nc21` (single isomer, unassigned) [Example 77, 7-[(trans)-2-methyloxetan-3-yl]-2-[[1-methyl-3-(oxetan-3-yloxy)pyrazol-4-yl]amino]pyrrolo[2,3-d]pyrimidine-6-carbonitrile], for which the IC50 in experiment [1] is 34 nM; against full-length LRRK2 G2019S, 21 nM. On to `COC[C@H](C)n1c(C#N)cc2cnc(Nc3cn(C)nc3O[C@@H]3CO[C@H]3C)nc21` (single isomer, unassigned) [Example 87], for which the IC50 in experiment [1] stood at 8 nM. For `[2H]C([2H])([2H])n1cc(Nc2ncc3cc(C#N)n([C@@H](C)COC)c3n2)c(O[C@@H]2CO[C@H]2C)n1` (single isomer, unassigned) [Example 89], the IC50 in experiment [1] is 9 nM.

The IC50 is the concentration that gives 50% inhibition. A lower IC50 goes with inhibition by little substance.
